The results in this text go back to patent publication US20240238271A1, “PHARMACEUTICAL COMPOSITION FOR ENHANCING CELL KILLING, AND USE THEREOF” (SHANGHAI JUNCELL THERAPEUTICS CO., LTD., priority 2020, published 2024).

Each structure is given as a SMILES string.

The subject of assay [1] is primary tumor cells such as pancreatic tumor cells. In words: Killing effect of TILs on primary tumor cells treated with hydroxychloroquine. Format: cell-based, human. Here is the method: In a specific embodiment, TILs are obtained from tumor samples of pancreatic cancer patients with reference to the method disclosed in CN110785486A (which is incorporated herein by reference in its entirety). Primary tumor cells such as pancreatic tumor cells are treated with the TILs alone (control group) or in combination with a compound of Formula (I) (e.g., hydroxychloroquine) (compound group). The cells of the compound group are treated with different concentrations of the compound of Formula (I) (e.g., hydroxychloroquine) for more than 12 hours (e.g., 24 hours). Under different effect-to-target ratios were the killing effects of TILs on target cells in the control group and the compound group detected.

In assay [2] the test system is type I HLA (HLA-A, B, C). In words: Type I HLA on surface of tumor cells of T008 PDX mice, flow cytometry MFI. Format: in vivo, mouse. The settings on record: 60 mg/kg/day i.p. q.d. 30 days, vs PBS control. Here is the method:
(§1) PDX mouse models derived from tissue T008 and tissue T018 were established according to the method of example 3. The model animals were grouped according to the following Table 7 in which mice were treated with hydroxychloroquine alone. Hydroxychloroquine used in the experiment was purchased from MCE (Cat. No.: HY-W031727).
(§2) Mice were sacrificed 30 days after treatment, and tumor tissues were taken out and digested into a single-cell suspension with dispase. After staining with a general HLA-A, B, C flow cytometric antibody (Biolegend, PE-anti-human HLA-A, B, C Antibody Cat. NO. 311406), the phenotypes and fluorescence intensity (MFI) were measured by flow cytometry, and the MFI values of different groups of HLA-type I positive cells were counted and compared.
A general note: In flow cytometry, cells or beads pass a laser one at a time.

Assay [3] relates to HLAs. In words: HLA expression (positive rate) of tumor cells treated with hydroxychloroquine. The assay is classed as cell-based, human. The settings on record: compound group vs control group.
In assay [4] the test system is type I HLA (HLA-A, B, C). In words: Type I HLA on surface of tumor cells of T018 PDX mice, flow cytometry MFI. The assay is classed as in vivo, mouse. The settings on record: 60 mg/kg/day i.p. q.d. 30 days, vs PBS control. Here is the method:
as §1, §2

`CCN(CCO)CCCC(C)Nc1ccnc2cc(Cl)ccc12` (centres unmarked) [hydroxychloroquine]: in assay [1] (compound group vs control group (TILs alone)), the “concentration of hydroxychloroquine at which the effect on TIL killing is more clear” value is given as “above 20 μM”. In assay [1] (primary tumor cells treated with hydroxychloroquine for more than 12 hours (e.g., 24 hours), different effect-to-target ratios, vs TILs alone), the “killing effects of TILs on target cells” value was “more effectively killed by TILs”. Besides, the “expression levels of type I HLA on the surface of tumor cells” value in assay [2] and in assay [4] was “significantly increased” in each case. In addition, in assay [3], the “positive rate of the cells (HLA expression)” value was “significantly higher”.
